Data: PubChem BioAssay (NCI)
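Here, GI50 denotes the concentration required for 50% inhibition of growth. Definition used: TGI = concentration required for complete inhibition of growth.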

What was measured:
Assay in all cases: growth of human tumour cells (NCI), 384-well format
786-0 renal = test system: 786-0 renal
A498 renal = test system: A498 renal
A549 NSCLC = test system: A549 NSCLC
ACHN renal = test system: ACHN renal
BT-549 breast = test system: BT-549 breast
CAKI-1 renal = test system: CAKI-1 renal
CCRF-CEM leukemia = test system: CCRF-CEM leukemia
COLO 205 colon = test system: COLO 205 colon
DU-145 prostate = test system: DU-145 prostate
EKVX NSCLC = test system: EKVX NSCLC
HCT-116 colon = test system: HCT-116 colon
HCT-15 colon = test system: HCT-15 colon
HL-60(TB) leukemia = test system: HL-60(TB) leukemia
HOP-62 NSCLC = test system: HOP-62 NSCLC
HOP-92 NSCLC = test system: HOP-92 NSCLC
HS 578T breast = test system: HS 578T breast
HT29 colon = test system: HT29 colon
IGROV1 ovarian = test system: IGROV1 ovarian
K-562 leukemia = test system: K-562 leukemia
KM12 colon = test system: KM12 colon
LOX IMVI melanoma = test system: LOX IMVI melanoma
M14 melanoma = test system: M14 melanoma
MALME-3M melanoma = test system: MALME-3M melanoma
MCF7 breast = test system: MCF7 breast
MDA-MB-231 breast = test system: MDA-MB-231 breast
MDA-MB-435 melanoma = test system: MDA-MB-435 melanoma
MDA-MB-468 breast = test system: MDA-MB-468 breast
MOLT-4 leukemia = test system: MOLT-4 leukemia
NCI-H226 lung = test system: NCI-H226 lung
NCI-H322M lung = test system: NCI-H322M lung
NCI-H460 NSCLC = test system: NCI-H460 NSCLC
NCI-H522 lung = test system: NCI-H522 lung
OVCAR-3 ovarian = test system: OVCAR-3 ovarian
OVCAR-4 ovarian = test system: OVCAR-4 ovarian
OVCAR-5 ovarian = test system: OVCAR-5 ovarian
OVCAR-8 ovarian = test system: OVCAR-8 ovarian
PC-3 prostate = test system: PC-3 prostate
RPMI-8226 leukemia = test system: RPMI-8226 leukemia
RXF 393 renal = test system: RXF 393 renal
SF-268 CNS = test system: SF-268 CNS
SF-295 CNS = test system: SF-295 CNS
SF-539 CNS = test system: SF-539 CNS
SK-MEL-2 melanoma = test system: SK-MEL-2 melanoma
SK-MEL-28 melanoma = test system: SK-MEL-28 melanoma
SK-OV-3 ovarian = test system: SK-OV-3 ovarian
SN12C renal = test system: SN12C renal
SNB-19 CNS = test system: SNB-19 CNS
SNB-75 CNS = test system: SNB-75 CNS
SR leukemia = test system: SR leukemia
SW-620 colon = test system: SW-620 colon
T-47D breast = test system: T-47D breast
TK-10 renal = test system: TK-10 renal
U251 glioblastoma = test system: U251 glioblastoma
UACC-257 melanoma = test system: UACC-257 melanoma
UACC-62 melanoma = test system: UACC-62 melanoma
UO-31 renal = test system: UO-31 renal
HCC-2998 colon = test system: HCC-2998 colon
NCI-H23 lung = test system: NCI-H23 lung
NCI/ADR-RES ovarian = test system: NCI/ADR-RES ovarian
SK-MEL-5 melanoma = test system: SK-MEL-5 melanoma

## CC1(C)CCC(CN2CCN(c3ccc(C(=O)NS(=O)(=O)c4ccc(NCC5CCOCC5)c([N+](=O)[O-])c4)c(Oc4cnc5[nH]ccc5c4)c3)CC2)=C(c2ccc(Cl)cc2)C1
786-0 renal
  GI50: 3.15 µM
  TGI: 9.12 µM
A498 renal
  GI50: 3.64 µM
  TGI: 8.99 µM
A549 NSCLC
  GI50: 4.97 µM
  TGI: 11.2 µM
ACHN renal
  GI50: 4.22 µM
  TGI: 11.6 µM
BT-549 breast
  GI50: 3.79 µM
  TGI: 9.18 µM
CAKI-1 renal
  GI50: 5.47 µM
  TGI: 11.7 µM
CCRF-CEM leukemia
  GI50: 7.94 µM
COLO 205 colon
  GI50: 3.81 µM
  TGI: 6.68 µM
DU-145 prostate
  GI50: 5.66 µM
  TGI: 18.5 µM
EKVX NSCLC
  GI50: 6.98 µM
  TGI: 14.3 µM
HCT-116 colon
  GI50: 4.46 µM
  TGI: 11.8 µM
HCT-15 colon
  GI50: 5.11 µM
  TGI: 9.19 µM
HL-60(TB) leukemia
  GI50: 0.105 µM
  TGI: 0.802 µM
HOP-62 NSCLC
  GI50: 6.2 µM
  TGI: 9.88 µM
HOP-92 NSCLC
  GI50: 1.83 µM
  TGI: 3.73 µM
HS 578T breast
  GI50: 3.14 µM
  TGI: 7.93 µM
HT29 colon
  GI50: 5.16 µM
  TGI: 7.3 µM
IGROV1 ovarian
  GI50: 2.81 µM
  TGI: 7.24 µM
K-562 leukemia
  GI50: 2.13 µM
  TGI: 4.28 µM
KM12 colon
  GI50: 5.75 µM
  TGI: 8.84 µM
LOX IMVI melanoma
  GI50: 9.62 µM
M14 melanoma
  GI50: 3.51 µM
  TGI: 9.14 µM
MALME-3M melanoma
  GI50: 2.81 µM
  TGI: 6.5 µM
MCF7 breast
  GI50: 4.38 µM
  TGI: 8.24 µM
MDA-MB-231 breast
  GI50: 2.49 µM
  TGI: 6.01 µM
MDA-MB-435 melanoma
  GI50: 3.43 µM
  TGI: 16.6 µM
MDA-MB-468 breast
  GI50: 3.67 µM
  TGI: 7.05 µM
MOLT-4 leukemia
  GI50: 1.26 µM
  TGI: 2.62 µM
NCI-H226 lung
  GI50: 7.08 µM
  TGI: 10.6 µM
NCI-H322M lung
  GI50: 4.57 µM
  TGI: 11.5 µM
NCI-H460 NSCLC
  GI50: 4.46 µM
  TGI: 7.85 µM
NCI-H522 lung
  GI50: 14.9 µM
  TGI: 20.2 µM
OVCAR-3 ovarian
  GI50: 4.55 µM
  TGI: 7.36 µM
OVCAR-4 ovarian
  GI50: 2.98 µM
  TGI: 6.29 µM
OVCAR-5 ovarian
  GI50: 3.53 µM
  TGI: 6.62 µM
OVCAR-8 ovarian
  GI50: 4.44 µM
  TGI: 7.43 µM
PC-3 prostate
  GI50: 4.61 µM
  TGI: 12.2 µM
RPMI-8226 leukemia
  GI50: 1.75 µM
  TGI: 3.99 µM
RXF 393 renal
  GI50: 3.41 µM
  TGI: 5.69 µM
SF-268 CNS
  GI50: 3.84 µM
  TGI: 8.19 µM
SF-295 CNS
  GI50: 3.98 µM
  TGI: 7.88 µM
SF-539 CNS
  GI50: 3.6 µM
  TGI: 7.94 µM
SK-MEL-2 melanoma
  GI50: 1.93 µM
  TGI: 3.43 µM
SK-MEL-28 melanoma
  GI50: 4.05 µM
  TGI: 9.58 µM
SK-OV-3 ovarian
  GI50: 15.5 µM
  TGI: 21.1 µM
SN12C renal
  GI50: 4.52 µM
  TGI: 14.9 µM
SNB-19 CNS
  GI50: 5.63 µM
  TGI: 11 µM
SNB-75 CNS
  GI50: 4.58 µM
  TGI: 9.27 µM
SR leukemia
  GI50: 1.38 µM
  TGI: 2.68 µM
SW-620 colon
  GI50: 6.09 µM
  TGI: 7.57 µM
T-47D breast
  GI50: 5.12 µM
  TGI: 8.12 µM
TK-10 renal
  GI50: 6.84 µM
  TGI: 12.4 µM
U251 glioblastoma
  GI50: 5.89 µM
  TGI: 9.82 µM
UACC-257 melanoma
  GI50: 5.19 µM
  TGI: 7 µM
UACC-62 melanoma
  GI50: 4.95 µM
  TGI: 7.13 µM
UO-31 renal
  GI50: 3.63 µM
  TGI: 8 µM

## Oc1ccc(-c2nc(-c3ccc(F)cc3)c(-c3ccncc3)[nH]2)cc1
786-0 renal
  GI50: 12.9 µM
  TGI: 26.6 µM
A498 renal
  GI50: 16.4 µM
  TGI: 46.2 µM
A549 NSCLC
  GI50: 19.2 µM
  TGI: > 52.1 µM
ACHN renal
  GI50: 12.2 µM
  TGI: 31.5 µM
BT-549 breast
  GI50: 19.2 µM
  TGI: > 57.2 µM
CAKI-1 renal
  GI50: 7.98 µM
  TGI: > 48.4 µM
CCRF-CEM leukemia
  GI50: 10.1 µM
  TGI: 21.8 µM
COLO 205 colon
  GI50: 8.47 µM
  TGI: 22.1 µM
DU-145 prostate
  GI50: 14.8 µM
  TGI: 31.2 µM
EKVX NSCLC
  GI50: 14.7 µM
  TGI: 33.2 µM
HCC-2998 colon
  GI50: 23.9 µM
  TGI: 40.8 µM
HCT-116 colon
  GI50: 20 µM
  TGI: > 53.3 µM
HCT-15 colon
  GI50: 15.4 µM
  TGI: 32.9 µM
HL-60(TB) leukemia
  GI50: 14.6 µM
  TGI: 27.7 µM
HOP-62 NSCLC
  GI50: 19 µM
  TGI: 42.9 µM
HOP-92 NSCLC
  GI50: 15.9 µM
  TGI: 60.4 µM
HS 578T breast
  GI50: 15.7 µM
  TGI: 31.3 µM
HT29 colon
  GI50: 5.85 µM
  TGI: 20.9 µM
IGROV1 ovarian
  GI50: 1.62 µM
  TGI: 20.9 µM
K-562 leukemia
  GI50: 10.5 µM
  TGI: 24.2 µM
KM12 colon
  GI50: 20.2 µM
  TGI: 37.2 µM
LOX IMVI melanoma
  GI50: 17.6 µM
  TGI: 31.8 µM
M14 melanoma
  GI50: 5.7 µM
  TGI: 21 µM
MALME-3M melanoma
  GI50: 3.34 µM
  TGI: 9.1 µM
MCF7 breast
  GI50: 18.8 µM
  TGI: > 100 µM
MDA-MB-231 breast
  GI50: 20.7 µM
  TGI: > 60 µM
MDA-MB-435 melanoma
  GI50: 10.4 µM
  TGI: 44 µM
MDA-MB-468 breast
  GI50: 4.59 µM
  TGI: 19.3 µM
MOLT-4 leukemia
  GI50: 11.9 µM
  TGI: 24.3 µM
NCI-H226 lung
  GI50: 18.7 µM
  TGI: 39.4 µM
NCI-H23 lung
  GI50: 29.2 µM
  TGI: 85.4 µM
NCI-H322M lung
  GI50: 21.3 µM
  TGI: 52.5 µM
NCI-H460 NSCLC
  GI50: 15.3 µM
  TGI: 28.9 µM
NCI-H522 lung
  GI50: 7.46 µM
  TGI: 22.2 µM
NCI/ADR-RES ovarian
  GI50: 20.2 µM
  TGI: 46.6 µM
OVCAR-3 ovarian
  GI50: 14.9 µM
  TGI: 29 µM
OVCAR-4 ovarian
  GI50: 47.5 µM
  TGI: > 100 µM
OVCAR-5 ovarian
  GI50: 23.6 µM
  TGI: 47 µM
OVCAR-8 ovarian
  GI50: 22.7 µM
  TGI: > 100 µM
PC-3 prostate
  GI50: 18.7 µM
  TGI: > 57 µM
RPMI-8226 leukemia
  GI50: 5.38 µM
  TGI: 13.1 µM
RXF 393 renal
  GI50: 15 µM
  TGI: 31.5 µM
SF-268 CNS
  GI50: 18.3 µM
  TGI: 46.2 µM
SF-295 CNS
  GI50: 17.5 µM
  TGI: 33.1 µM
SF-539 CNS
  GI50: 17.6 µM
  TGI: 35.8 µM
SK-MEL-2 melanoma
  GI50: 16.3 µM
  TGI: 30 µM
SK-MEL-28 melanoma
  GI50: 7.27 µM
  TGI: 22.4 µM
SK-MEL-5 melanoma
  GI50: 10.6 µM
  TGI: 22.5 µM
SK-OV-3 ovarian
  GI50: 13 µM
  TGI: 32.7 µM
SN12C renal
  GI50: 44.3 µM
  TGI: > 100 µM
SNB-19 CNS
  GI50: 41.7 µM
  TGI: > 100 µM
SNB-75 CNS
  GI50: 32.9 µM
  TGI: > 85.4 µM
SR leukemia
  GI50: 10.3 µM
  TGI: 22.1 µM
SW-620 colon
  GI50: 23.5 µM
  TGI: 38.4 µM
T-47D breast
  GI50: 12.5 µM
  TGI: 27.1 µM
TK-10 renal
  GI50: 18.8 µM
  TGI: 57.3 µM
U251 glioblastoma
  GI50: 18.6 µM
  TGI: 48.3 µM
UACC-257 melanoma
  GI50: 21.9 µM
  TGI: > 54 µM
UACC-62 melanoma
  GI50: 3.62 µM
  TGI: 16.8 µM
